Source: paper PMC3056842 (Malaria Journal, 2011)
“And” between values parts separate entries of the source, which are not always exact repeats. Identical values can stand only once. “Also recorded” adds a separate entry of the source. Blank lines part the entries; values can stand above or below the compound they belong to.

Columns and labels:
Plasmodium falciparum [1] = conditions: sigmoid Emax pharmacodynamic model of PCT; cited from earlier work
clinical = conditions: for CL/F: DHA CL/F; for fraction unbound: DHA FF (free fraction); for Tmax: DHA Tmax; for half-life: DHA T½; for Vd/F: DHA Vd/F
Protocol: The four tablets were given orally with 240 mL water under medical supervision. A catheter was inserted into a forearm vein for pharmacokinetic sample collection and flushed after each blood draw with saline solution. […] Blood for malaria smears were taken by finger prick at pre-dose and at 12, 24, 30, 36, 42 and 48 hours post-dose. Malaria smears were also performed on days 7, 14 and 28.
The persistence of malaria infection and adverse events were tracked for 28 days after SP administration. Babies born from the pregnant women cohort were followed until one year of age and development assessed.
The reconstituted extracts were chromatographed isocratically and the compounds detected and quantified by mass spectroscopy.
Concentrations below the lower limit of quantification were assigned a value of zero.
The ratio of the AUC during pregnancy to the AUC at postpartum (after log transformation) was considered a measure of the impact of pregnancy on systemic exposure. […] The "no effect" interval was selected based on the dose-ranging study by Angus and coworkers. […] Statistical analyses were performed using SAS/STAT software, version 9.2 (SAS Institute, Inc., Cary, NC, 2008). […] Spearman correlations were used to look for associations among the pregnant and control population. All p-values were 2-sided.

[2] = parameters: species or system human; conditions: in vivo
Protocol: To determine if women met the eligibility criteria, a complete medical history and physical examination was performed by a study physician; sociodemographic data was collected by a study nurse. Haematocrit was measured using a microhaematocrit centrifuge (Hawksley Haematospin 1400, Hawksley & Sons, Ltd, UK). Thick and thin blood films were stained with Giemsa and then read to determine parasite species and the density of P. falciparum asexual stages. […] Human Immunodeficiency Virus (HIV) serology was determined using the Determine 1/2 HIV Test Kit (Inverness Medical Professional Diagnostics, Princeton, NJ). Liver function was assessed by measuring aspartate aminotransferase (AST) and alanine aminotransferase (ALT) in plasmaPiccolo Portable Chemistry Analyser, Abaxis, USA). Alpha-1-Acid glycoprotein was determined in serum samples using radial immunodiffusion (Kent Laboratories, Bellingham, WA, USA).

Plasmodium falciparum [3] = test: Pharmacodynamics of AS: parasitaemia on malaria smears after dosing; format: in vivo; conditions: for Parasitaemic - n (%) / Parasite density (where > 0): 12 hours after 200 mg oral AS
Protocol: To determine if women met the eligibility criteria, a complete medical history and physical examination was performed by a study physician; sociodemographic data was collected by a study nurse. Haematocrit was measured using a microhaematocrit centrifuge (Hawksley Haematospin 1400, Hawksley & Sons, Ltd, UK). Thick and thin blood films were stained with Giemsa and then read to determine parasite species and the density of P. falciparum asexual stages. Parasite density, based on examination of at least 200 high-power microscope fields, was calculated as (# trophozoites/#white blood cells)*6000. Human Immunodeficiency Virus (HIV) serology was determined using the Determine 1/2 HIV Test Kit (Inverness Medical Professional Diagnostics, Princeton, NJ). Liver function was assessed by measuring aspartate aminotransferase (AST) and alanine aminotransferase (ALT) in plasmaPiccolo Portable Chemistry Analyser, Abaxis, USA). Alpha-1-Acid glycoprotein was determined in serum samples using radial immunodiffusion (Kent Laboratories, Bellingham, WA, USA). […]

[4] = artesunate 4 mg/kg with Malarone, final day of three day course; second and third trimester pregnant women, Thailand; 90% range 0.9-60.7; cited from earlier work
[5] = female, human, plasma, po, 200 mg, 200 mg oral AS, ante-partum pregnant cases, median [range]
[6] = female, human, plasma, po, 200 mg, 200 mg oral AS, non-pregnant controls, median [range]
[7] = female, human, plasma, po, 200 mg, 200 mg oral AS, post-partum (3 months), median [range]

- range of AS AUCs among the subjects (clinical; female, human, in vivo, po, 200 mg): more than 17 fold
- AUC (clinical; female, human, in vivo, po, 200 mg, median AS AUC): 205 ng·h/mL
- pregnancy outcome [2]: singleton live births
SMILES: C[C@H]1[C@H](OC(=O)CCC(=O)O)O[C@@H]2O[C@@]3(C)CC[C@H]4[C@H](C)CC[C@@H]1[C@@]24OO3 [AS, artesunate]
- Hill slope coefficient (Plasmodium falciparum [1]): 10
- infant development at one year of age [2]: normal physical and neurological development
- aparasitaemic at 12 hours among those parasitaemic at t = 0 (Plasmodium falciparum [3]; 200 mg oral AS, 13 of the 14 non-pregnant controls): 93%
- aparasitaemic at 12 hrs among those parasitaemic at t = 0 (Plasmodium falciparum [3]; 200 mg oral AS, 21 of the 24 pregnant women): 87.5%
- Parasitaemic - n (%) (Plasmodium falciparum [3]; all pregnant cases, N 26): 3 (11.5)
- Parasite density (where > 0) (Plasmodium falciparum [3]; all pregnant cases, median (interquartile range)): 87 (44 - 286) parasites/μL
- Parasitaemic - n (%) (Plasmodium falciparum [3]; non-pregnant controls, N 25): 1 (4.0)
- Parasite density (where > 0) (Plasmodium falciparum [3]; non-pregnant controls, median): 24 -- parasites/μL
- Parasitaemic - n (%) (Plasmodium falciparum [3]; pregnant cases Window 1 (22-26 wks GA), N 13): 3 (23.1)
- Parasite density (where > 0) (Plasmodium falciparum [3]; pregnant cases Window 1, median (interquartile range)): 87 (44 - 286) parasites/μL
- Parasitaemic - n (%) (Plasmodium falciparum [3]; pregnant cases Window 2 (32-36 wks GA), N 13): 0 (0)
- efficacy (in words) (Plasmodium falciparum [3]; single 200 mg oral dose of AS, second and third trimester pregnant women): effective; also recorded: rapid clearance of parasitaemia

- median free AUC for DHA in pregnant women as percentage of non-pregnant controls (clinical; 200 mg oral AS): 79%
- median total AUC for DHA in pregnant women as percentage of non-pregnant controls (clinical; 200 mg oral AS): 62%
- DHA AUCall (clinical; 200 mg oral AS, ante-partum pregnant cases, median [range]): 1730.5 [1034.7 - 4085.5] ng*h/mL
- DHA T½ (clinical; 200 mg oral AS, non-pregnant controls, median [range]): 1.41 [0.86 - 6.55] h
- AUC (clinical; female, human, plasma, po, 200 mg, DHA AUCall, 200 mg oral AS, ante-partum pregnant cases, median [range]): 1730 ng·h/mL
- AUC (clinical; female, human, plasma, po, 200 mg, DHA AUCall, 200 mg oral AS, non-pregnant controls, median [range]): 2790 ng·h/mL
- AUC (clinical; female, human, plasma, po, 200 mg, DHA AUCall, 200 mg oral AS, post-partum (3 months), median [range]): 2120 ng·h/mL
- CL/F (clinical; [5]): 23.2 mL/min/kg
- CL/F (clinical; [6]): 17.8 mL/min/kg
- CL/F (clinical; [7]): 21 mL/min/kg
- Cmax (clinical; female, human, plasma, po, 200 mg, DHA Cmax, 200 mg oral AS, ante-partum pregnant cases, median [range]): 905 ng/mL
- Cmax (clinical; female, human, plasma, po, 200 mg, DHA Cmax, 200 mg oral AS, non-pregnant controls, median [range]): 1280 ng/mL
- Cmax (clinical; female, human, plasma, po, 200 mg, DHA Cmax, 200 mg oral AS, post-partum (3 months), median [range]): 980 ng/mL
- fraction unbound (clinical; [5]): 0.21
- fraction unbound (clinical; [6]): 0.18
- fraction unbound (clinical; [7]): 0.19
- Tmax (clinical; [5]): 1.5 h
- Tmax (clinical; [6]): 1.52 h
- Tmax (clinical; [7]): 1.5 h
- half-life (clinical; [5]): 1.28 h
- half-life (clinical; [7]): 1.63 h
- Vd/F (clinical; [5]): 157 L and 2.84 L/kg
- Vd/F (clinical; [6]): 128 L and 2.45 L/kg
- Vd/F (clinical; [7]): 158 L and 3 L/kg
- Cmax (clinical; female, human, plasma, po, 200 mg, median DHA Cmax, 200 mg oral AS, non-pregnant control group): 1280 ng/mL
- Cmax (clinical; female, human, plasma, po, 200 mg, median DHA Cmax, 200 mg oral AS, pregnant group): 905 ng/mL
SMILES: C[C@H]1[C@@H](O)O[C@@H]2O[C@@]3(C)CC[C@H]4[C@H](C)CC[C@@H]1[C@@]24OO3 [DHA, dihydroartemisinin]
- median DHA Vd/F [4]: 3.4 L/kg
